According to article PMC9231284, “Hesperidin Bioavailability Is Increased by the Presence of 2S-Diastereoisomer and Micronization—A Randomized, Crossover and Double-Blind Clinical Trial” (Nutrients, 2022):

Experiments:
[1] = parameters: method as in PMID 18058792; conditions: rats, intravenous administration of racemic hesperetin; cited from earlier work
[2] = First phase: relative urinary hesperidin excretion in 24 h urine after 500 mL orange juice with 345 mg hesperidin; assay type: in vivo, human; conditions: for Relative urinary hesperidin excretion, low excretors: N=3, mean ± SD
Description: The study consisted of two phases. In the first phase, 30 volunteers consumed 500 mL of orange juice (OJ) with 345 mg of hesperidin [9], and the levels of hesperidin excreted in urine were determined. The OJ used in the first phase of the study was the hesperidin OJ used in previous studies conducted by our group. The objective of this first phase of the study was to select volunteers with intermediate hesperidin metabolite levels excreted in urine to reduce the variability in the results in the second phase of the study.
For the first phase of the study—after at least 8 h of fasting—the participants’ urine was collected before the intake of 500 mL of OJ (basal urine) and after the intake of the OJ for 24 h, accumulated in a single volume urine (Figure 1). Urine samples were homogenized and centrifuged at 1900 g for 10 min at 4 °C, and the supernatant was collected and subdivided into aliquots which were stored at −80 °C until analysis.
Relative urinary hesperidin excretion values (% of hesperidin ingested) obtained in the first phase of the study were used to select the participants for the second phase of the study. It was calculated by the ratio between the sum of hesperidin metabolites and the amount of hesperidin consumed by the participants (345 mg). With these values, 18 volunteers with intermediate relative urinary hesperidin excretion values were selected for the second phase.
To obtain the main and secondary outcomes, the urinary levels of hesperidin metabolites and catabolites at baseline—before consuming the hesperidin supplement—and up to 24 h after consuming the hesperidin supplement in four urine fractions (0–3 h; 3–6 h; 6–8 h; 8–24 h) were determined. In addition, the serum levels of hesperidin metabolites and catabolites at baseline and at 2 h, 3 h, 4 h, 5 h, 6 h, 7 h, 8 h and 24 h after consuming the hesperidin supplement were quantified. To obtain the relative urinary hesperidin excretion in the first phase of the study, the urinary levels of hesperidin metabolites before consuming the OJ and in the 24 h urine after consuming the hesperidin supplement were determined.
Hesperetin and related metabolites were determined in urine and serum samples by liquid chromatography coupled to triple quadrupole mass spectrometry (LC-QqQ) using a UHPLC 1290 Infinity II Series coupled to a QqQ/MS 6490 Series (Agilent Technologies, Palo Alto, CA, USA) and an ACQUITY UPLC BEH C18 (100 × 2.1 mm; 1.8 µm) column (Waters, Milford, MA, USA). Mobile phase A was 100% water with 0.5% acetic acid and 10 mM ammonium acetate, and mobile phase B was 100% methanol. The column temperature was set at 45 °C and the injection volume was 5 µL. The triple quadrupole operated in negative electrospray ionization mode (ESI-). The source conditions were set at 25 psi for the nebulizer gas, 240 °C for the gas temperature, 17 L/min for the gas flow, 250 °C for the sheath gas temperature, 12 L/min for the sheath gas flow, 3500 V for the capillary voltage and 0 V for the nozzle voltage. The standards used for quantification purposes were: Hesperetin and Hesperidin (Extrasynthese, Genay, France); Hesperetin 7-O-beta-D-glucuronide, Hesperetin 3-O-beta-D-glucuronide and Hesperetin 7,3′-di-O-beta-D-glucuronide (Toronto Research Chemicals; North York, ON, Canada); Hesperitin 7-O-sulfate (Santa Cruz Biotechnology, Dallas, TX, USA). Hesperitin-d3 and Diosmetin 7-O-β-D-Glucuronide-d3 (Toronto Research Chemicals; North York, ON, Canada) were used as internal standards. […]

[3] = cited from earlier work
[4] = parameters: method as in PMID 28747329, PMID 26861391, PMID 30669635; conditions: humans, oral; cited from earlier work

Compound	AUC of R-diastereoisomer compared to S-diastereoisomer [1] [fold]	Relative urinary hesperidin excretion, low excretors [2] [%]	Relative urinary hesperidin excretion, low excretors ([2]; listed as Hesperidin) [%]	Relative urinary hesperidin excretion, high excretors ([2]; N=4, mean ± SD) [%]	Relative urinary hesperidin excretion, intermediate excretors ([2]; N=21, mean ± SD) [%]	Mean relative urinary hesperidin excretion determined as hesperetin or hesperetin conjugates in urine ([2]; all participants N=28, mean ± SD) [%]	Solubility [3]	Water solubility [3]	Share of ingested hesperidin that reaches the large intestine [4] [%]
COc1ccc([C@H]2CC(=O)c3c(O)cc(O)cc3O2)cc1O [R-diastereoisomer, hesperetin]	3.2	–	–	–	–	–	–	–	–
COc1ccc([C@@H]2CC(=O)c3c(O)cc(O[C@@H]4O[C@H](CO[C@@H]5O[C@@H](C)[C@H](O)[C@@H](O)[C@H]5O)[C@@H](O)[C@H](O)[C@H]4O)cc3O2)cc1O [hesperidin, hesperetin-7-O-rutinoside]	–	0.74 ± 0.11	0.743 ± 0.112	6.06 ± 1.46	2.31 ± 1.01	2.67 ± 1.79	low	poor	70
